The values that follow come from patent US20070276020A1, “Dicationic Compounds For Activity Against Trichomonas Vaginalis” (priority 2004, published 2007).

Counter-ions that a name gives are not always drawn. Like-named read-outs stand apart in the source and are kept apart here.

Data set [1] deals with T. vaginalis CDC reference strain 520 (metronidazole-sensitive). The data set can be described thus: IC50 assay, tritiated thymidine incorporation, 48 h, metronidazole-sensitive strain 520. It is filed as cell-based, Trichomonas vaginalis. As to conditions: for IC50: Trichomonas vaginalis. As for the experimental part:
(§1) CDC reference strains 085 and 520 that are metronidazole resistant and sensitive, respectively, were maintained at 37° C. in Diamond's trypticase-yeast-maltose medium (TYM; pH 6.0). Metronidazole, tinidazole, pentamidine, and berenil were purchased from Sigma Chemical Co. (St. Louis, Mo., United States of America). Compound 1, see Das, B. P. and D. W. Boykin, J. Med. Chem., 20, 531-536 (1977); Compound 2, see Boykin, D. W., et al., Bioorganic and Med. Chem. Lett., 6:3017-3020 (1996); Compound 3 and Compound 4, see Boykin, D. W., et al., J. Med. Chem., 41, 124-129 (1998); Compound 6, see Francesconi, I., et al., J. Med. Chem., 42, 2260-2265 (1999); Compound 5, see Stephens, C., et al., J. Med. Chem., 44, 1741-1748 (2001); and Compound 9, see Mallena, S. et al., J. Am. Chem. Soc., 126, 13659-13669 (2004); were synthesized as previously reported. Purity was determined by NMR and TLC. The syntheses of 7 and 8 are outlined below. See also Crowell, A. L., et al., Antimicrob. Agents Chemother., 48, 3602-3605 (2004), which is incorporated herein by reference in its entirety.
(§2) Compounds were dissolved in dimethyl sulfoxide (DMSO, Sigma) and further diluted with Diamond's TYM media to reach assay concentrations. Two types of assays were performed on the cationic compounds being evaluated. An initial screen was performed using the standard MLC assay, see Crowell, A. L., et al., Antimicrob. Agents Chemother., 47, 1407-1409 (2003); Meingassner, J. G. and J. Thurner, Antimicrob. Agents Chemother., 15, 254-257 (1979), with a maximum concentration of 20 μM for the test compounds. After 48 h of incubation at 37° C., plates were examined using an inverted phase-contrast microscope. The lowest drug concentration at which no motile trichomonads were observed was recorded as the MLC. Each compound was tested at least twice under both aerobic and anaerobic conditions. Anaerobic conditions were generated using a GASPAK™ jar and CO2-generating GASPAK™ Plus anaerobic system envelopes (Becton Dickinson, Sparks, Md., United States of America) and monitored with GASPAK™ disposable anaerobic indicator strips (Becton Dickinson). […] To further evaluate the compounds' activity, a second type of assay was used to determine the concentration at which 50% of the parasite growth was inhibited (IC50). In these assays, 0.5 μCi of tritiated thymidine (Perkin-Elmer, Boston, Mass., United States of America) was added to each well of a standard assay at the initiation of culture. At 48 h of incubation under either aerobic or anaerobic conditions, cells were harvested onto glass fiber filters (Wallac, Turku, Finland) using a TOMTEC™ cell harvester (Hamden, Conn., United States of America). Incorporated thymidine was detected using BETAPLATE™ (Wallac) scintillation fluid and plate reader. The resulting counts per minute over the compound's concentration range were utilized to calculate IC50s using GRAPHPAD™ PRISM™ (GraphPad Software, Inc., San Diego, Calif., United States of America).
In general terms: Dividing cells build labelled thymidine or BrdU into new DNA.

The subject of the next data set is T. vaginalis. Nature of the data set: In vitro assays against T. vaginalis, overall statement in words. The data set is classed as cell-based, Trichomonas vaginalis. As for the experimental part: as §2
Data set [2] has as its system T. vaginalis CDC reference strain 085 (metronidazole-resistant). The data set can be described thus: IC50 assay, tritiated thymidine incorporation, 48 h, metronidazole-resistant strain 085. The data set is classed as cell-based, Trichomonas vaginalis. As for the experimental part:
as §1, §2

Data set [3] concerns different protozoal infection. As to conditions: experimental model; cited from earlier work.
Data set [4] concerns trichomoniasis infections. To be noted: cited from earlier work.
Where [5] appears, read: metronidazole-sensitive strain 520, aerobic, 48 h.
[6] abbreviates: metronidazole-sensitive strain 520, anaerobic, 48 h.
Setting [7] is: metronidazole-resistant strain 085, aerobic, 48 h.
The mark [8] stands for this setting: metronidazole-resistant strain 085, anaerobic, 48 h.
The mark [9] stands for this setting: 48 h, read-out: IC50 values (μM ± SEM) 520 aerobic.
The mark [10] stands for this setting: 48 h, read-out: IC50 values (μM ± SEM) 520 anaerobic.
Where [11] appears, read: Trichomonas vaginalis, 48 h, read-out: IC50 values (μM ± SEM) 085 aerobic.
[12] abbreviates: Trichomonas vaginalis, 48 h, read-out: IC50 values (μM ± SEM) 085 anaerobic.
Where [13] appears, read: metronidazole-sensitive strain 520, aerobic, 48 h, read-out: IC50 values (μM ± SEM) 520 aerobic.
Where [14] appears, read: metronidazole-sensitive strain 520, anaerobic, 48 h, read-out: IC50 values (μM ± SEM) 520 anaerobic.
[15] abbreviates: Trichomonas vaginalis, metronidazole-resistant strain 085, aerobic, 48 h, read-out: IC50 values (μM ± SEM) 085 aerobic.
Setting [16] is: Trichomonas vaginalis, metronidazole-resistant strain 085, anaerobic, 48 h, read-out: IC50 values (μM ± SEM) 085 anaerobic.

Usually IC50 stands for the midpoint of a concentration-inhibition curve. The melting point is the temperature of the solid-liquid transition.

For the compound “4,4′-Bis{2-[(4-amidino)benzimidazolyl]}biphenyl tetrahydrochloride [Compound 7]”, in data set [1], the “activity against metronidazole-sensitive 520 isolate” value is given as “not”. The “IC50 values (μM ± SEM) 520 aerobic” value in data set [1] (setting [5]) is given as “no effect”. Moreover, in data set [1] (setting [6]), the “IC50 values (μM ± SEM) 520 anaerobic” value is listed as “no effect”. For the same compound, the “effectiveness against T. vaginalis in vitro” value (“effectiveness … in vitro” for short) in the data set on T. vaginalis was “effective anti-trichomonads”. Moreover, the “activity against metronidazole-resistant 085 strain” value in data set [2] was “has activity”. Moreover, the IC50 in data set [2] (metronidazole-resistant strain 085, aerobic, 48 h, read-out: IC50 values (μM ± SEM) 085 aerobic) is 7.79 ± 4.2 µM; in data set [2] (metronidazole-resistant strain 085, anaerobic, 48 h, read-out: IC50 values (μM ± SEM) 085 anaerobic), 25.3 ± 43.1 µM.

The compound `CC(C)NC(=N)c1ccc2nc(-c3ccc4oc(-c5nc6ccc(C(=N)NC(C)C)cc6[nH]5)cc4c3)[nH]c2c1` (as salt: hydrochloride) [Compound 8, 2,5-Bis{2-[5-(N-isopropylamidino)benzimidazoyl]}benzo[b]furan tetrahydrochloride] displayed a melting point of 285 to 290 °C.

With `CC(=O)NCC(=O)O.CC(=O)NCC(=O)O.N=C(N)c1ccc(N=NNc2ccc(C(=N)N)cc2)cc1` [Berenil, reference compound], in data set [1] (setting [5]), the “IC50 values (μM ± SEM) 520 aerobic” value was “no effect”. For the same compound, in data set [1] (setting [6]), the “IC50 values (μM ± SEM) 520 anaerobic” value was “no effect”. Further, in the data set on T. vaginalis, the “effectiveness … in vitro” value is listed as “not effective”. In data set [2] (setting [7]), the “IC50 values (μM ± SEM) 085 aerobic” value is “no effect”. Besides, the “IC50 values (μM ± SEM) 085 anaerobic” value in data set [2] (setting [8]) is listed as “no effect”.

Regarding `N=C(N)c1ccc(-c2ccc(-c3ccc(C(=N)N)cc3)o2)cc1` [Compound 1, 2,5-Bis(4-amidinophenyl)furan], the “activity against metronidazole-sensitive 520 isolate” value in data set [1] is reported as “good activity”. Moreover, the IC50 turned out to be 18.6 ± 6.43 µM in data set [1] (setting [9]), 57.9 ± 19.6 µM in data set [1] (setting [10]), 8.12 ± 2.45 µM in data set [2] (setting [11]) and 18.6 ± 19.8 µM in data set [2] (setting [12]). The “effectiveness versus metronidazole and tinidazole against resistant strain 085” value in data set [2] (aerobic conditions) is reported as “clearly more effective”.

Consider `CONC(=N)c1ccc(-c2ccc(-c3ccc(C(=N)NOC)cc3)o2)cc1` [Compound 2, 2,5-Bis[4-(O-methyloxyamidino)phenyl]furan], for which the “IC50 values (μM ± SEM) 520 aerobic” value in data set [1] (setting [5]) is recorded as “no effect”. For the same compound, the “IC50 values (μM ± SEM) 520 anaerobic” value in data set [1] (setting [6]) is recorded as “no effect”. The “effectiveness … in vitro” value in the data set with T. vaginalis was “generally ineffective”. Also, the IC50 in data set [2] (setting [11]) worked out at 39.1 ± 25.1 µM. Further, the “IC50 values (μM ± SEM) 085 anaerobic” value in data set [2] (setting [8]) is reported as “no effect”.

`CC(C)NC(=N)c1ccc(-c2ccc(-c3ccc(C(=N)NC(C)C)cc3)o2)cc1` [Compound 3, 2,5-Bis[4-(N-isopropylamidino)phenyl]furan]: the IC50 stood at 6.6 ± 1.76 µM in data set [1] (setting [9]), 3.91 ± 1.06 µM in data set [1] (setting [10]), 6.44 ± 3.89 µM in data set [2] (setting [11]) and 9.41 ± 7.92 µM in data set [2] (setting [12]).

For the compound `N=C(NC1CCCCC1)c1ccc(-c2ccc(-c3ccc(C(=N)NC4CCCCC4)cc3)o2)cc1` [Compound 4, 2,5-Bis[4-(N-cyclohexylamidino)phenyl]-furan], the IC50 in data set [1] (setting [9]) was found to be 15.9 ± 0.74 µM; in data set [1] (setting [10]), 13.9 ± 3.74 µM; in data set [2] (setting [11]), 22.4 ± 13.7 µM; in data set [2] (setting [12]), 10.2 ± 8.47 µM.

For the compound `N=C(N)Nc1ccc(-c2ccc(-c3ccc(NC(=N)N)cc3)o2)cc1` [Compound 5, 2,5-Bis-(4-guanidinophenyl)furan], the “IC50 values (μM ± SEM) 520 aerobic” value in data set [1] (setting [5]) is on record as “no effect”. The “IC50 values (μM ± SEM) 520 anaerobic” value in data set [1] (setting [6]) is “no effect”. Further, in the data set on T. vaginalis, the “effectiveness … in vitro” value is on record as “not effective”. In addition, the “IC50 values (μM ± SEM) 085 aerobic” value in data set [2] (setting [7]) is on record as “no effect”. Besides, the “IC50 values (μM ± SEM) 085 anaerobic” value in data set [2] (setting [8]) is listed as “no effect”.

On to `N=C(N)c1ccc(-c2coc(-c3ccc(C(=N)N)cc3)c2)cc1` [Compound 6, 3,5-Bis(4-amidophenyl)furan], for which, in data set [1] (setting [5]), the “IC50 values (μM ± SEM) 520 aerobic” value is recorded as “no effect”. Besides, the “IC50 values (μM ± SEM) 520 anaerobic” value in data set [1] (setting [6]) is recorded as “no effect”. Moreover, the “effectiveness … in vitro” value in the data set on T. vaginalis is recorded as “not effective”. Moreover, the “IC50 values (μM ± SEM) 085 aerobic” value in data set [2] (setting [7]) is reported as “no effect”. Moreover, the “IC50 values (μM ± SEM) 085 anaerobic” value in data set [2] (setting [8]) is reported as “no effect”.

For the compound `CC(C)NC(=N)c1ccc2nc(-c3ccc4oc(-c5nc6ccc(C(=N)NC(C)C)cc6[nH]5)cc4c3)[nH]c2c1` [Compound 8, 2,5-Bis{2-[5-(N-isopropylamidino)benzimidazoyl]}benzo[b]furan tetrahydrochloride], the IC50 in data set [1] (setting [9]) is 44.7 ± 9.33 µM; in data set [1] (setting [10]), 143 ± 127 µM; in data set [2] (setting [11]), 7.27 ± 3.76 µM; in data set [2] (setting [12]) it was 37.6 ± 43.9 µM. In addition, the “effectiveness … in vitro” value in the data set with T. vaginalis was “effective anti-trichomonads”.

`N=C(N)c1ccc(-c2ccc(-c3nc4ccc(C(=N)N)cc4[nH]3)s2)cc1` [Compound 9, 2-(4-Amidinophenyl)-5-[2-(5-amidinobenzimidazoyl)]thiophene]: the IC50 in data set [1] (setting [9]) was 0.98 ± 0.19 µM; in data set [1] (setting [10]), 1.24 ± 0.39 µM; in data set [1] (read-out: IC50 values), at most 1 µM; in data set [2] (setting [11]), 0.27 ± 0.04 µM; in data set [2] (setting [12]), 0.5 ± 0.42 µM; in data set [2] (Trichomonas vaginalis, read-out: IC50 values), at most 1 µM. For the same compound, the “effectiveness … in vitro” value in the data set with T. vaginalis is given as “most effective dication”. Further, the “in vivo treatment of a different protozoal infection” value in data set [3] was “successfully used”. Besides, in data set [3], the “toxicity to the host” value is “without overt evidence of toxicity”.

On to `Cc1ncc([N+](=O)[O-])n1CCO` [Metronidazole, reference compound], for which the IC50 in data set [1] (setting [13]) was 18.2 ± 4.25 µM; in data set [1] (setting [14]), 1.89 ± 0.77 µM; in data set [2] (setting [15]), 303 ± 22.2 µM; in data set [2] (setting [16]), 12.3 ± 23.8 µM. Moreover, in data set [4], the infections successfully treated was 90-95%.

On to `N=C(N)c1ccc(OCCCCCOc2ccc(C(=N)N)cc2)cc1` [Pentamidine, reference compound], for which the “IC50 values (μM ± SEM) 520 aerobic” value in data set [1] (setting [5]) was “no effect”. The “IC50 values (μM ± SEM) 520 anaerobic” value in data set [1] (setting [6]) is on record as “no effect”. Besides, the “effectiveness … in vitro” value with T. vaginalis is reported as “not effective”. For the same compound, in data set [2] (setting [7]), the “IC50 values (μM ± SEM) 085 aerobic” value is “no effect”. The “IC50 values (μM ± SEM) 085 anaerobic” value in data set [2] (setting [8]) is given as “no effect”.

As for `CCS(=O)(=O)CCn1c([N+](=O)[O-])cnc1C` [Tinidazole, reference compound], the IC50 in data set [1] (setting [13]) is 1.48 ± 0.12 µM; in data set [1] (setting [14]), 0.004 µM; in data set [2] (setting [15]), 45.1 ± 5.38 µM; in data set [2] (setting [16]) it was 4.81 ± 1.17 µM.
